Like-named read-outs stand apart in the source and are kept apart here.
Legend:
[1] = log P by HPLC on reversed-phase C18 columns (OECD Guideline 117); format: physicochemical; conditions: for logP[a]: method [a]; for logP[b]: method [b]; for chromatographic logP: reversed-phase C18 HPLC column
Protocol: The log P values were determined in accordance with OECD Guideline 117 (EC Directive 92/69/EEC) by HPLC (high-performance liquid chromatography) using reversed-phase (RP) columns (C18), by the following methods:
[a] The LC-MS determination in the acidic range was carried out at pH 2.7 with 0.1% aqueous formic acid and acetonitrile (contains 0.1% formic acid) as mobile phases; linear gradient from 10% acetonitrile to 95% acetonitrile.
[b] LC-MS determination in the neutral range was carried out at pH 7.8 with 0.001 molar aqueous ammonium hydrogencarbonate solution and acetonitrile as mobile phases; linear gradient from 10% acetonitrile to 95% acetonitrile.

[2] = tested on: green peach aphid (Myzus persicae); experiment: Myzus persicae spray test (Chinese cabbage leaf discs); format: in vivo; conditions: application rate 500 g/ha, after 5 or 6 days, Chinese cabbage leaf discs
Protocol: Myzus persicae—Spray Test
Solvent: 78 parts by weight of acetone • • 1.5 parts by weight of dimethylformamide
(§1) Emulsifier: alkylaryl polyglycol ether
(§2) To produce a suitable active compound preparation, 1 part by weight of active compound is dissolved using the stated parts by weight of solvent and made up with water containing an emulsifier concentration of 1000 ppm until the desired concentration is attained. To produce further test concentrations, the preparation is diluted with emulsifier-containing water.
Discs of Chinese cabbage leaves (Brassica pekinensis) infested by all stages of the green peach aphid (Myzus persicae) are sprayed with an active compound preparation of the desired concentration.
After 5 or 6 days, the efficacy in % is determined. 100% means that all the aphids were killed; 0% means that no aphids were killed.

[3] = tested on: green peach aphid (Myzus persicae); experiment: Contrasting example: Myzus persicae spray test (MYZUPE); format: in vivo; conditions: MYZUPE, 100 g ai/ha
Protocol: Myzus persicae—Spray Test (MYZUPE)
Solvents: 78.0 parts by weight of acetone • • 1.5 parts by weight of dimethylformamide
as §1, §2
Discs of Chinese cabbage leaves (Brassica pekinensis), infested by all stages of the green peach aphid (Myzus persicae) are sprayed with an active compound preparation of the desired concentration.
After the desired period of time, the efficacy in % is determined. 100% means that all aphids were killed; 0% means that no aphids were killed.

| SMILES | logP[a] [1] | logP[b] [1] | efficacy (aphids killed) [2] [%] | % efficacy ([3]; 5 dat) [%] | % efficacy ([3]; 6 dat) [%] | chromatographic logP ([1]; pH 2.7, method [a], read-out: logP[a]) | chromatographic logP ([1]; pH 7.8, method [b], read-out: logP[b]) | pest or weed control at 500 g/ha ([2]; Myzus persicae, foliar, read-out: efficacy (aphids killed)) [%] | pest or weed control at 100 g/ha ([3]; Myzus persicae, 144 h, 6 dat, read-out: % efficacy) [%] |
| --- | --- | --- | --- | --- | --- | --- | --- | --- | --- |
| CN(C(=O)c1cnc(SCC(F)(F)C(F)(F)Cl)n1C)c1cccnc1 [I-A-46] | 2.09 | 2.17 | 100 | 90 |  |  |  |  |  |
| CN(C(=O)c1cnc(SCCC(F)(F)F)n1C)c1cccnc1 [I-A-47] | 1.65 | 1.84 | 100 | 90 |  |  |  |  |  |
| CN(C(=O)c1cnc(SCCCF)n1C)c1cccnc1 [I-A-48] | 1.11 | 1.40 | 100 | 90 |  |  |  |  |  |
| CN(C(=O)c1cnc(SCC(F)(F)C(F)F)n1C)c1cccnc1 [I-A-49] | 1.55 | 1.71 | 100 | 90 |  |  |  |  |  |
| CN(C(=O)c1cnc(SCCSCC(F)(F)F)n1C)c1cccnc1 [I-A-50] | 1.94 | 2.10 | 100 | 100 |  |  |  |  |  |
| CN(C(=O)c1cnc(SC2CCSCC2)n1C)c1cccnc1 [I-A-51] | 1.47 | 1.73 | 100 | 100 |  |  |  |  |  |
| CN(C(=O)c1cnc(SC2CCOCC2)n1C)c1cccnc1 [I-A-52] | 0.90 | 1.25 | 100 | 100 |  |  |  |  |  |
| CC(C)CCSc1ncc(C(=O)N(C)c2cccnc2)n1C [I-A-53] | 2.68 | 2.76 | 100 | 100 |  |  |  |  |  |
| CN(C(=O)c1cnc(SC2COC2)n1C)c1cccnc1 [I-A-54] | 0.63 | 0.98 | 100 | 90 |  |  |  |  |  |
| COc1ccc(Sc2ncc(C(=O)N(C)c3cccnc3)n2C)cc1 [I-A-58] | 1.62 | 1.79 | 90 |  | 70 |  |  |  |  |
| CN(C)c1ccc(Sc2ncc(C(=O)N(C)c3cccnc3)n2C)cc1 [I-A-59] | 1.55 | 2.11 | 90 |  | 90 |  |  |  |  |
| CN(C(=O)c1cnc(Sc2cc(Cl)ccc2Cl)n1C)c1cccnc1 [I-A-60] | 2.55 | 2.58 | 90 |  | 70 |  |  |  |  |
| CN(C(=O)c1cnc(Sc2ccc(F)cc2)n1C)c1cccnc1 [I-A-62] |  |  |  |  |  | 1.66 | 1.87 | 90 | 70 |
| CN(C(=O)c1cnc(Sc2ccc(Cl)c(C(F)(F)F)c2)n1C)c1cccnc1 [I-A-64] | 2.63 | 2.71 | 90 |  | 70 |  |  |  |  |
| CN(C(=O)c1cnc(Sc2ccccn2)n1C)c1cccnc1 [I-A-65] | 1.01 | 1.18 | 100 |  | 100 |  |  |  |  |
| CN(C(=O)c1cnc(Sc2ccccc2S(=O)(=O)N(C)C)n1C)c1cccnc1 [I-A-69] | 1.56 | 1.63 | 100 |  | 70 |  |  |  |  |
| CN(C(=O)c1cnc(Sc2ccc(Cl)nc2)n1C)c1cccnc1 [I-A-70] | 1.45 | 1.52 | 100 |  | 70 |  |  |  |  |
| CN(C(=O)c1cnc(Sc2ccccc2F)n1C)c1cccnc1 [I-A-71] | 1.68 | 1.78 | 100 |  | 70 |  |  |  |  |
| CN(C(=O)c1cnc(S(=O)(=O)c2ccc(F)cc2)n1C)c1cccnc1 [I-A-82] | 1.53 | 1.62 | 90 |  | 90 |  |  |  |  |
| CN(C(=O)c1cnc([S+]([O-])c2ccc(F)cc2)n1C)c1cccnc1 (stereo not drawn) [I-A-84] | 1.22 | 1.27 | 90 |  | 70 |  |  |  |  |
| CN(C(=O)c1cnc([S+]([O-])c2ccccn2)n1C)c1cccnc1 (stereo not drawn) [I-A-86] | 0.59 | 0.80 | 90 |  | 90 |  |  |  |  |
| CN(C(=O)c1cnc([S+]([O-])c2ccccc2)n1C)c1cccnc1 (stereo not drawn) [I-A-87] | 1.04 | 1.20 | 90 |  | 90 |  |  |  |  |
| CN(C(=O)c1cnc(Sc2ccc(F)cn2)n1C)c1cccnc1 [I-A-94] | 1.18 | 1.39 | 100 |  | 90 |  |  |  |  |
| CN(C(=O)c1cnc([S+]([O-])c2cccc(C(F)(F)F)c2)n1C)c1ccc[n+]([O-])c1 (stereo not drawn) [I-A-95] | 1.41 | 1.39 | 100 | 90 |  |  |  |  |  |
| CN(C(=O)c1cnc([S+]([O-])c2cccc(C(F)(F)F)c2)n1C)c1cccnc1 (stereo not drawn) [I-A-96] | 1.74 | 1.80 | 100 | 90 |  |  |  |  |  |
| CN(C(=O)c1cnc([S+]([O-])c2ncccn2)n1C)c1cccnc1 (stereo not drawn) [I-A-97] | 0.45 | 0.48 | 90 |  | 70 |  |  |  |  |
| CN(C(=O)c1cnc(Sc2nccc(C(F)(F)F)n2)n1C)c1cccnc1 [I-A-100] | 1.58 |  | 90 |  | 90 |  |  |  |  |
| Cc1ccnc(Sc2ncc(C(=O)N(C)c3cccnc3)n2C)n1 [I-A-101] | 1.00 |  | 100 |  | 90 |  |  |  |  |
| COc1cc(OC)nc(Sc2ncc(C(=O)N(C)c3cccnc3)n2C)n1 [I-A-102] | 1.61 | 1.79 | 100 |  | 90 |  |  |  |  |
